Results published in US11964946B1, “4,5-bis(4-methoxyphenyl)-1-hexyl-2-(4-nitrophenyl)-1H-imidazole as an antimicrobial compound” (KING FAISAL UNIVERSITY, priority 2023, dated 2024).

Legend:
Experiment in all cases: Antimicrobial screening, agar dilution method
Format in all cases: cell-based
Details in all cases: after 10, 20, 40 and 60 minutes at all dilutions 1:100, 1:200, 1:400, 1:800
Candida albicans = tested on: Candida albicans
Method: (§1) The antimicrobial properties of the 4,5-bis(4-methoxyphenyl)-1-hexyl-2-(4-nitrophenyl)-1H-imidazole was studied by the method of agar dilution. Test solutions of each compound was prepared in concentration of 1% using dimethylformamide as a solvent then they were diluted in physiological solution to obtain the final experimental dilutions 1:100, 1:200, 1:400, 1:800. The effect of these substances were compared with furacillin in a controlled study. The testing microbes used were gram positive bacteria Staphylococcus aureus, gram negative bacteria Pseudomonas aeruginosa and Escherichia coli and Candida albicans fungi were taken. The experiments used for this survey were meat-pentonlu agar (EPA) for cultivation of bacteria and Saburo environment for fungi. Each experiment used 1 ml of test solution on each plate 500 min. Add 2 drops of emulsified with microbes feel. All experimental samples were taken from the agar after 10, 20, 40, 60 minutes in the environment on the basis of Patrk planted. Bacteria were cultivated at a temperature of 37° C. for 1 day and the mushroom was kept in a thermostat for […] at a temperature of 28° C. Then results were checked.

Escherichia coli = tested on: Escherichia coli
Method: as §1

Pseudomonas aeruginosa = tested on: Pseudomonas aeruginosa
Method: as §1

Staphylococcus aureus = tested on: Staphylococcus aureus
Method: as §1

Measured: inhibition activity (in words)

CCCCCCn1c(-c2ccc(OC)c(OC)c2)nc(-c2ccc(Br)cc2)c1-c1ccc(Br)cc1 [4,5-bis(4-bromophenyl)-1-hexyl-2-(3,4-dimethoxyphenyl)-1H-imidazole]
highest inhibition activity: all assays above
